One experiment addresses T1, mouse GPR39 (Mus musculus, UniProt Q5U431, T447P).
T1 construct: expressed in transfected cells; host or cells: CHO cells, vector pAKKO-111H
T1 sequence (Q5U431 1-456 T447P): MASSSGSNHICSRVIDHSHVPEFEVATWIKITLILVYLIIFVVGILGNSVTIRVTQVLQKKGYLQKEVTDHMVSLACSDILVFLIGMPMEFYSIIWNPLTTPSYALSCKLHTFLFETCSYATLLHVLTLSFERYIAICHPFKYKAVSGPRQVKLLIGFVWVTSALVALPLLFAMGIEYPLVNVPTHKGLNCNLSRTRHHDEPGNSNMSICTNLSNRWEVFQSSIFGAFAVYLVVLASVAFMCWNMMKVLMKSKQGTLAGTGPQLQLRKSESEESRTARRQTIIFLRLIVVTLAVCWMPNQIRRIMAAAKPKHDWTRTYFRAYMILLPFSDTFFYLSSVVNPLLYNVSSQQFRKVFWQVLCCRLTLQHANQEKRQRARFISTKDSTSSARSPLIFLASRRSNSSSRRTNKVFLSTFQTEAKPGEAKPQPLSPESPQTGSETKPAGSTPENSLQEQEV
In kind it is cell-based. The conditions noted are these: FLIPR, Fluo-3AM (FIG. 14 through FIG. 18). The method, then:
Using the CHO cell line where rat GPR39 was stably expressed, the agonist activity of metal ions was detected using FLIPR in terms of the intracellular calcium-increasing reaction as an indicator. The CHO cell line used, wherein rat GPR39 was stably expressed, was cultured in HAM's αMEM (Invitrogen Corp.) containing 10% calf fetal serum (Invitrogen Corp.). On the day before the assay was conducted, the human GPR39-expressing CHO cell line was cultured in a culture flask to reach a confluent state. After washing with PBS, the cells were scraped off using trypsin and centrifuged for recovery. The cells were then suspended in medium and the suspension was adjusted to 3×10^5 cells/ml. Then, the suspension was dispensed onto a black walled 96-well plate (Costar) in 100 μl each per well, followed by incubation overnight in a CO2 incubator.
(§1) On the day when the assay was conducted, various test samples were added to the cells and the changes of intracellular calcium levels in this case were determined by FLIPR (Molecular Device). In order to determine the changes in intracellular calcium levels on FLIPR, the cells were pre-treated by the following procedures. First, for the purpose of adding a fluorescent dye Fluo-3AM (DOJIN) to the cells or washing the cells immediately before the FLIPR assay, an assay buffer was prepared. A solution was prepared by adding 20 ml of 1M HEPES (pH 7.4) (DOJIN) to 1000 ml of HBSS (Invitrogen Corp.) (hereinafter HBSS/HEPES solution), to which solution was added 10 ml of a solution mixture obtained by dissolving 710 mg of Probenecid (Sigma) in 5 ml of 1N NaOH and further adding 5 ml of HBSS/HEPES solution thereto. The resulting solution was used as the assay buffer. Next, 50 μg of Fluo-3AM was dissolved in 21 μl of DMSO (DOJIN) and an equal volume of 20% Pluronic acid (Molecular Probes) was added to and mixed with the solution. The mixture was then added to 10.6 ml of the assay buffer supplemented with 105 μl of fetal calf serum to prepare a fluorescent dye solution. The medium for the CHO cells where human GPR39 was stably expressed was removed. Immediately thereafter, the fluorescent dye solution was dispensed in 100 μl each/well and the cells were incubated in a CO2 incubator for an hour so that the fluorescent dye was taken up into the cells. The cells after the incubation was washed with the assay buffer described above and set on FLIPR. A test sample to be added to the CHO cells where rat GPR39 was stably expressed was prepared using the assay buffer and set on FLIPR at the same time. Following the pre-treatment above, the changes in intracellular calcium levels after the addition of each test sample were determined by FLIPR.
Using the CHO cell line where mouse GPR39 was stably expressed, the agonist activity of metal ions was detected on FLIPR in accordance with the procedures described in EXAMPLE 5, in terms of the intracellular calcium-increasing reaction as an indicator.

Another experiment deals with HT-1197. The conditions noted are these: FLIPR. As to the method:
as §1, with “Immediately thereafter, the fluorescent dye solution was dispensed in 100 μl each/well and the cells were incubated in a CO2 incubator for an hour so that the fluorescent dye was taken up into the cells. The cells after the incubation was washed with the assay buffer described above and set on FLIPR. A test sample to be added to the CHO cells where rat GPR39 was stably expressed was prepared using the assay buffer and set on FLIPR at the same time.” left out, “FLIPR. […]” for “FLIPR.”

A further experiment has as its system UM-UC-3. The conditions noted are these: FLIPR. As to the method: as §1, with “Immediately thereafter, the fluorescent dye solution was dispensed in 100 μl each/well and the cells were incubated in a CO2 incubator for an hour so that the fluorescent dye was taken up into the cells. The cells after the incubation was washed with the assay buffer described above and set on FLIPR. A test sample to be added to the CHO cells where rat GPR39 was stably expressed was prepared using the assay buffer and set on FLIPR at the same time.” left out, “FLIPR. […]” for “FLIPR.”

Experiment [1] deals with bladder (micturition) of conscious rats. As to the kind of experiment: Cystometry in conscious rats with intravesical infusion. In kind it is in vivo, rat. The conditions noted are these: female SD rats, 1 mM CuCl2 in saline infused into the bladder. As to the method: Female SD rats of 9-10 weeks old were anaesthetized by intramuscular injection with 0.1 ml/100 g of a solution obtained by mixing ketamine (50 mg/mL) and xylazine (20 mg/mL) in 5:1. The bladder was then exposed via a midline incision and a hole was made with a 20-G needle to insert a polyethylene tube (PE-50), which tube was sutured to the bladder with cotton thread. The polyethylene tube cannulated into the bladder was cut at a length of about 1 cm, which was connected to a silicon tube (No. 00) and exposed to the dorsum through the skin. The animals were housed in individual cages until they were used for the experiments.
One day after the surgery, the animal was anesthetized with halothane and placed in Ballman cages under restricted conditions. After a three-way cock was connected to the tube cannulated into the bladder, a saline infusion tube was connected to a cystometry tube (resistance to infusion). An electronic scale was placed under the Ballman cages and the micturition volume was measured at the same time. When the anesthetic completely worn off, the infusion of saline into the bladder commenced and the bladder pressure and micturition volume were recorded on a personal computer via an A-D converter (MP-100, BIOPAC Systems) and analyzed using a dedicated software (AcqKnowledge, BIOPAC Systems).
Saline was infused into the bladder at the rate of 6 ml/hr and the infusion was continued for 1 or 2 hours until stable micturition was recorded. In order to enhance the permeability of a drug into the bladder, protamine sulfate (10 mg/mL in PBS) was infused into the bladder for an hour (Chuang Y, et. al., 2003, Urology, 63, 664-670). […] Then, saline was reinfused into the bladder and micturition was recorded at least 2 hours until protamine was completely washed off. […] Mean micturition intervals during from about 30 minutes to about 60 minutes after starting the infusion of CuCl2 were calculated to find a ratio to mean micturition intervals for about 30 minutes before the infusion of CuCl2 (% of the pre-value).

As for `[Cl][Ni][Cl]` [nickel chloride], on mouse GPR39, the “intracellular calcium levels of CHO/mGPR39” value was “dose-dependently increased”. In the experiment on HT-1197, the “reaction (change in intracellular calcium levels) in HT-1197” value is “a reaction with nickel was detected”. For the same compound, the “reaction (change in intracellular calcium levels) in UM-UC-3” value in the experiment on UM-UC-3 is “a reaction with nickel was detected”.
For the compound `[Cl][Cu][Cl]` [copper chloride], the “intracellular calcium levels of CHO/mGPR39” value on mouse GPR39 was “dose-dependently increased”. The “basal pressure (bladder)” value in experiment [1] is recorded as “not affected”. Besides, the “ratio of mean micturition intervals (% of the pre-value)” value in experiment [1] (about 30-60 min after start vs about 30 min before, pre-value made 100%, n=4) was 42.2±6.1%.

Source of the values: patent US7972800B2, “Screening method for binding property or signal transduction alterations” (Takeda Pharmaceutical Company Limited, priority 2003, dated 2011).
